# How the values were obtained:
# Assay in all cases: Postemergence herbicidal activity, greenhouse, visual injury
# Assay type in all cases: in vivo, Papaver rhoeas
# Details in all cases: 20-22 d after application
# [1] = tested on: PAPRH-S1F00101 (phenoxyalkanoic acid herbicide-resistant corn poppy)
# Description: (§1) Seeds of the phenoxyalkanoic acid herbicide-resistant and susceptible plant species were planted in Sun Gro MetroMix® 306 planting mixture, which typically has a pH of 6.0 to 6.8 and an organic matter content of about 30 percent, in plastic pots with a surface area of 103.2 square centimeters (cm^2). When required to ensure good germination and healthy plants, a fungicide treatment and/or other chemical or physical treatment was applied. The plants were grown for 7-36 days (d) in a greenhouse with an approximate 14-hour (h) photo-period which was maintained at about 18° C. during the day and 17° C. during the night. Nutrients and water were added on a regular basis and supplemental lighting was provided with overhead metal halide 1000-Watt lamps as necessary. The plants were employed for testing when they reached the second or third true leaf stage.
# (§2) Treatments consisted of the acid or esters of 4-amino-3-chloro-6-(4-chloro-2-fluoro-3-methoxyphenyl)pyridine-2-carboxylic acid (Compound I) and 2,4-D, mecoprop and 2-(4-chloro-2-methyl-phenoxy)acetic acid (MCPA) alone. Weighed amounts of the herbicides were dissolved in a volume of 97:3 volume-per-volume (v/v) acetone/dimethylsulfoxide (DMSO) to obtain concentrated solutions. […] The concentrated solutions of the test compound were diluted with the addition of an aqueous mixture containing acetone, water, isopropyl alcohol, DMSO, Agri-Dex crop oil concentrate, and Triton® X-77 surfactant in a 64.7:26.0:6.7:2.0:0.7:0.01 v/v ratio. Test compounds were diluted to the appropriate application rate with a dilution solution which was prepared by mixing the appropriate volume of 97:3 v/v acetone/DMSO and the appropriate volume of an aqueous mixture containing acetone, water, isopropyl alcohol, DMSO, Agri-Dex crop oil concentrate, and Triton® X-77 surfactant in a 64.7:26.0:6.7:2.0:0.7:0.01 v/v ratio. Compound requirements are based upon a 12 mL application volume at a rate of 187 liters per hectare (L/ha). Spray solutions of 2,4-D, mecoprop and MCPA were prepared by diluting an aliquot of the concentrated herbicide with an aqueous mixture containing 1.25% v/v Agri-Dex. 2,4-D, mecoprop and MCPA were applied at 1×, 2× and 4× of the recommended application rate.
# (§3) Formulated compounds were applied to the plant material with an overhead Mandel track sprayer equipped with 8002E nozzles calibrated to deliver 187 L/ha over an application area of 0.503 square meters (m^2) at a spray height of 18 inches (43 centimeters (cm)) above average plant canopy. Control plants were sprayed in the same manner with the solvent blank.
# (§4) The treated plants and control plants were placed in a greenhouse as described above and watered by sub-irrigation to prevent wash-off of the test compounds. After 20-22 d, the condition of the test plants as compared with that of the control plants was determined visually and scored on a scale of 0 to 100 percent where 0 corresponds to no injury and 100 corresponds to complete kill.
# [2] = tested on: PAPRH-S2F01502 (phenoxyalkanoic acid herbicide-resistant corn poppy)
# Description: as §1, §2, §3, §4
# [3] = tested on: PAPRH-S4F00101 (phenoxyalkanoic acid herbicide-resistant corn poppy)
# Description: as §1, §2, §3, §4
# [4] = tested on: PAPRH-S4F00103 (phenoxyalkanoic acid herbicide-resistant corn poppy)
# Description: as §1, §2, §3, §4
# [5] = tested on: PAPRH-Susceptible (susceptible corn poppy)
# Description: as §1, §2, §3, §4
Compound,"Activity (visual injury, 0 = no injury, 100 = complete kill) PAPRH-S1F00101 ([1]; 800 g ae/ha) [%]","Activity (visual injury, 0 = no injury, 100 = complete kill) PAPRH-S1F00101 ([1]; 1600 g ae/ha) [%]","Activity (visual injury, 0 = no injury, 100 = complete kill) PAPRH-S1F00101 ([1]; 3200 g ae/ha) [%]","Activity (visual injury, 0 = no injury, 100 = complete kill) PAPRH-S2F01502 ([2]; 800 g ae/ha) [%]","Activity (visual injury, 0 = no injury, 100 = complete kill) PAPRH-S2F01502 ([2]; 1600 g ae/ha) [%]","Activity (visual injury, 0 = no injury, 100 = complete kill) PAPRH-S2F01502 ([2]; 3200 g ae/ha) [%]","Activity (visual injury, 0 = no injury, 100 = complete kill) PAPRH-S4F00101 ([3]; 800 g ae/ha) [%]","Activity (visual injury, 0 = no injury, 100 = complete kill) PAPRH-S4F00101 ([3]; 1600 g ae/ha) [%]","Activity (visual injury, 0 = no injury, 100 = complete kill) PAPRH-S4F00101 ([3]; 3200 g ae/ha) [%]","Activity (visual injury, 0 = no injury, 100 = complete kill) PAPRH-S4F00103 ([4]; 800 g ae/ha) [%]","Activity (visual injury, 0 = no injury, 100 = complete kill) PAPRH-S4F00103 ([4]; 1600 g ae/ha) [%]","Activity (visual injury, 0 = no injury, 100 = complete kill) PAPRH-S4F00103 ([4]; 3200 g ae/ha) [%]","Activity (visual injury, 0 = no injury, 100 = complete kill) PAPRH-Susceptible ([5]; 800 g ae/ha) [%]","Activity (visual injury, 0 = no injury, 100 = complete kill) PAPRH-Susceptible ([5]; 1600 g ae/ha) [%]","Activity (visual injury, 0 = no injury, 100 = complete kill) PAPRH-Susceptible ([5]; 3200 g ae/ha) [%]",further results
"O=C(O)COc1ccc(Cl)cc1Cl [2,4-D, (2,4-dichlorophenoxy)acetic acid]",21,16,50,15,53,51,22,42,33,21,19,59,85,94,99,–
"COc1c(Cl)ccc(-c2cc(N)c(Cl)c(C(=O)O)n2)c1F [Compound I, 4-amino-3-chloro-6-(4-chloro-2-fluoro-3-methoxyphenyl)pyridine-2-carboxylic acid]",–,–,–,–,–,–,–,–,–,–,–,–,–,–,–,"Activity (visual injury, 0 = no injury, 100 = complete kill) PAPRH-S1F00101 ([1]; 7.5 g ae/ha): 90%; Activity (visual injury, 0 = no injury, 100 = complete kill) PAPRH-S1F00101 ([1]; 10 g ae/ha): 90%; Activity (visual injury, 0 = no injury, 100 = complete kill) PAPRH-S2F01502 ([2]; 7.5 g ae/ha): 93%; Activity (visual injury, 0 = no injury, 100 = complete kill) PAPRH-S2F01502 ([2]; 10 g ae/ha): 94%; Activity (visual injury, 0 = no injury, 100 = complete kill) PAPRH-S4F00101 ([3]; 7.5 g ae/ha): 88%; Activity (visual injury, 0 = no injury, 100 = complete kill) PAPRH-S4F00101 ([3]; 10 g ae/ha): 94%; Activity (visual injury, 0 = no injury, 100 = complete kill) PAPRH-S4F00103 ([4]; 7.5 g ae/ha): 78%; Activity (visual injury, 0 = no injury, 100 = complete kill) PAPRH-S4F00103 ([4]; 10 g ae/ha): 95%; Activity (visual injury, 0 = no injury, 100 = complete kill) PAPRH-Susceptible ([5]; 7.5 g ae/ha): 95%; Activity (visual injury, 0 = no injury, 100 = complete kill) PAPRH-Susceptible ([5]; 10 g ae/ha): 97%"
"Cc1cc(Cl)ccc1OCC(=O)O [MCPA, 2-(4-chloro-2-methyl-phenoxy)acetic acid]",14,23,57,28,14,58,28,37,60,23,40,57,70,89,100,–

# Reference: patent publication US20120115727A1, “CONTROL OF PHENOXYALKANOIC ACID HERBICIDE-RESISTANT WEEDS WITH 4-AMINO-3-CHLORO-6-(4-CHLORO-2-FLUORO-3-METHOXYPHENYL)PYRIDINE-2-CARBOXYLIC ACID AND ITS SALTS OR ESTERS” (DOW AGROSCIENCES LLC, priority 2010, published 2012)
